# Assay results taken from patent US20230381170A1, “METHOD FOR TREATING ALS/FTD THROUGH DEGRADATION OF RNA REPEAT EXPANSION” (University of Florida Research Foundation, Incorporated, priority 2020, published 2023).
# Key:
# r(G4C2)8 = test: RIBOTAC cleavage of r(G4C2)8 in vitro, FRET assay with RNase L; assay type: biochemical; conditions: r(G4C2)8 labeled Cy5/Cy3
# Procedure: RIBOTAC Cleavage of […] in vitro: Gel Analysis. A model of r(G4C2)^exp, r(G4C2)8 was radioactively labeled at its 5′ end and purified on a denaturing 15% polyacrylamide gel as previously described (12, 57). Then, 25 nM of labeled RNA was folded by heating at 95° C. for 5 min in 1× Rnase L buffer (25 mM Tris-HCl, pH7.4, and 100 mM NaCl) and allowed to slowly cool to room temperature. To the folded RNA was added 2-Mercaptoethanol (7 mM final concentration), ATP (50 µM final concentration), and MgCl2 (10 mM final concentration). Compound was added, and the samples were incubated for 15 min at room temperature. Next, Rnase L was added to a final concentration of 25 or 50 nM, and the samples were incubated at 37° C. (1 h or overnight). Fragments were separated on a denaturing 15% polyacrylamide gel, imaged by phosphorimaging with a Typhoon FLA 9500, and quantified with BioRad's QuantityOne software. All studies were performed in duplicate.
# RIBOTAC Cleavage of r(G4C2)8 in vitro: FRET Assay. A FRET assay was developed to monitor RIBOTAC-induced cleavage of r(G4C2)8 by Rnase L. This assay uses r(G4C2)8 labeled with Cy5 and Cy3, at the 5′ and 3′ end, respectively (Dharmacon). […] Fluorescence was measured on a Molecular Devices SpectraMax M5 plate reader (Cy3, Ex.: 554 nm; Em.: 568 nm; Cy5, Ex.: 649 nm, Em.: 666 nm; FRET, Ex.: 554 nm, Em.: 666 nm). […]
# [1] = test system: C9orf72 exon 1b transcripts lacking r(G4C2)exp; test: C9orf72 exon 1b RT-qPCR in patient-derived LCLs; assay type: cell-based, human; conditions: any concentration
# Procedure: Measuring Levels of C9orf72 and C9orf72 Variants by RT-qPCR. LCLs were seeded in 6-well plate (˜10^6 cells in 2 mL of growth medium) and incubated overnight at 37° C. Cells were then treated with various concentrations of compound for 24 h or with G4C2-ASO and Control-ASO (100 nM), delivered by transfection with Lipofectamine RNAiMax. RNA was extracted as described above and the expression of C9orf72 variants was determined by RT-qPCR. […] For compound treatment well, medium change was performed with fresh compound every 3-4 days. RNA was extracted as described above and the expression of C9orf72 variants was determined by RT-qPCR.
# [2] = test system: transcriptome of iPSCs derived from healthy donors; test: RNA-seq in iPSCs from healthy donors; assay type: cell-based, human; conditions: 50 nM
# Nup98 = Nup98 by structured illumination microscopy in patient-derived iPSNs; assay type: cell-based, human; conditions: 50 nM
# Procedure: Nuclei Isolation and Super Resolution Structured Illumination Microscopy. iPSC-derived spinal neurons were generated according to the previously published diMNs protocol (37). On day 15 and 18 of differentiation, […] G4C2 repeat-targeting ASO was added to media as previously described (59). For compound treatment, 50 nM 7 was added to media on days 15, 18, 21, 24, 27, and 30 of differentiation. On day 32 of differentiation, nuclei isolation was performed using the Nuclei Pure Prep Nuclei Isolation Kit (Sigma Aldrich) as previously described (68). Isolated nuclei were spun onto collagen coated slides and immunostained following standard protocols as previously described (68). Primary antibodies: 1:250 rat anti-Nup98 (Abcam), 1:500 chicken anti-NeuN (Millipore); secondary antibodies: […] Alexa 488 (Invitrogen), goat anti-chicken Alexa 647 (Invitrogen). NeuN positive nuclei were imaged by super resolution structured illumination microscopy (SIM) using a Zeiss ELYRA S.1 as previously described (14). Next, 50 nuclei per iPSC line/treatment group were analyzed using the 3D suite plugin in FIJI. The average number of spots from the 50 nuclei for each cell line and treatment group was used for statistical analyses. […] Quantification is presented as violin plots to represent the full variability of all nuclei analyzed.
smiles,measurement,setting,value
CCOC(=O)C1=C(Nc2ccccc2)S/C(=C\c2ccc(OCCOCCOCCOCCNC(=O)CCC(=O)N(CCOCCOCCOc3ccc4[nH]c5c(C)c6ccncc6c(C)c5c4c3)CCOCCOCCOc3ccc4[nH]c5c(C)c6ccncc6c(C)c5c4c3)c(O)c2)C1=O [Compound 7],FRET signal upon addition of compound and Rnase L,r(G4C2)8,dose dependently decreased
same,C9orf72 transcripts that lack r(G4C2)exp (exon 1b),[1],no decrease
same,changes in the transcriptome,[2],no changes
same,Nup98 abundance,Nup98,reversed the loss of Nup98
